Experimental data: ChEMBL document CHEMBL1201862, “PubChem BioAssay data set” (2004)
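Five concentrations, 48 hours, 96-well plates. The concentration for 50% growth inhibition is given as GI50.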 Active and inactive are the calls of the source. Cut-off read from the data, not from the text of the source: active = GI50 up to about 1.1 µM and inactive = higher.

Legend:
Experiment in all cases: NCI tumour cell line growth inhibition, 48 h
M14 = test system: M14
MOLT-4 = test system: MOLT-4
OVCAR-5 = test system: OVCAR-5
SF-295 = test system: SF-295
UO-31 = test system: UO-31
SW-620 = test system: SW-620
HCT-116 = test system: HCT-116
U-251 = test system: U-251
SNB-19 = test system: SNB-19
NCI-H23 = test system: NCI-H23
SNB-75 = test system: SNB-75
SK-MEL-28 = test system: SK-MEL-28
M19-MEL = test system: M19-MEL
NCI-H226 = test system: NCI-H226
RXF 393 = test system: RXF 393
T47D = test system: T47D
MCF7 = test system: MCF7
MDA-MB-435 = test system: MDA-MB-435
BT-549 = test system: BT-549
Hs-578T = test system: Hs-578T

| SMILES | GI50 (M14) | GI50 (MOLT-4) | GI50 (OVCAR-5) | GI50 (SF-295) | GI50 (UO-31) | GI50 (SW-620) | GI50 (HCT-116) | GI50 (U-251) | GI50 (SNB-19) | GI50 (NCI-H23) | GI50 (SNB-75) | GI50 (SK-MEL-28) | GI50 (M19-MEL) | GI50 (NCI-H226) | GI50 (RXF 393) | GI50 (T47D) | GI50 (MCF7) | GI50 (MDA-MB-435) | GI50 (BT-549) | GI50 (Hs-578T) |
| --- | --- | --- | --- | --- | --- | --- | --- | --- | --- | --- | --- | --- | --- | --- | --- | --- | --- | --- | --- | --- |
| COc1cc2cccc(NC(=O)c3cc(OC)c(OC)c(OC)c3Br)c2cc1OC | 11.3 µM (inactive) | 2.79 µM (inactive) | 10 µM (inactive) | 12.5 µM (inactive) | 5.9 µM (inactive) | 24.8 µM (inactive) | 11.9 µM (inactive) | 22.3 µM (inactive) | 14.2 µM (inactive) | 8 µM (inactive) | 26.9 µM (inactive) | 16.1 µM (inactive) | 10.2 µM (inactive) | – | – | – | – | – | – | – |
| CC(=O)CN(Cc1cc(C)c2c(c1)c1ccccc1n2Cc1ccccc1)S(=O)(=O)c1ccc(C)cc1 | > 100 µM (inactive) | > 100 µM (inactive) | – | > 100 µM (inactive) | 57.7 µM (inactive) | > 100 µM (inactive) | > 100 µM (inactive) | – | > 100 µM (inactive) | > 100 µM (inactive) | > 100 µM (inactive) | > 100 µM (inactive) | > 100 µM (inactive) | > 100 µM (inactive) | – | – | – | – | – | – |
| COc1cccc(N2C(=O)C3C4C=C5c6ccccc6N(c6ccccc6)C5(C3C2=O)[C@H]2C(=O)N(c3cccc(OC)c3)C(=O)[C@@H]42)c1 (stereo partly drawn) | > 100 µM (inactive) | > 100 µM (inactive) | > 100 µM (inactive) | > 100 µM (inactive) | > 100 µM (inactive) | > 100 µM (inactive) | > 100 µM (inactive) | > 100 µM (inactive) | > 100 µM (inactive) | > 100 µM (inactive) | > 100 µM (inactive) | – | > 100 µM (inactive) | > 100 µM (inactive) | > 100 µM (inactive) | – | – | – | – | – |
| Cc1ccc(-n2c(C)nc3c2C(=O)c2ccccc2C3=O)cc1 | 58.2 µM (inactive) | > 100 µM (inactive) | – | 25 µM (inactive) | 66.7 µM (inactive) | 33.5 µM (inactive) | 5.73 µM (inactive) | 9.46 µM (inactive) | 71.9 µM (inactive) | 25.9 µM (inactive) | 34.4 µM (inactive) | 52.6 µM (inactive) | 12 µM (inactive) | > 100 µM (inactive) | > 100 µM (inactive) | – | – | – | – | – |
| CC(=O)NC(CCCCNC(=O)N(CCCl)N=O)C(=O)NCc1ccccc1 (stereo not drawn) | > 100 µM (inactive) | > 100 µM (inactive) | – | 55.2 µM (inactive) | > 100 µM (inactive) | > 100 µM (inactive) | > 100 µM (inactive) | 61.7 µM (inactive) | > 100 µM (inactive) | > 100 µM (inactive) | 27.2 µM (inactive) | > 100 µM (inactive) | > 100 µM (inactive) | > 100 µM (inactive) | – | – | – | – | – | – |
| C=C1C(=O)C23[C@H](O)C1CC[C@H]2[C@]12COC3(O)[C@@H](O)[C@@H]1C(C)(C)CC[C@@H]2O | 5.57 µM (inactive) | 3.27 µM (inactive) | 18.5 µM (inactive) | 17.6 µM (inactive) | 15.4 µM (inactive) | 1.84 µM (inactive) | 7.28 µM (inactive) | 6.04 µM (inactive) | 18.5 µM (inactive) | 13.5 µM (inactive) | 20.4 µM (inactive) | 2.72 µM (inactive) | 12.9 µM (inactive) | – | 2.57 µM (inactive) | – | – | – | – | – |
| CC1=C(C)CC2(SC1)C(=O)c1ccccc1C2=O | > 100 µM (inactive) | > 100 µM (inactive) | > 100 µM (inactive) | > 100 µM (inactive) | 66.1 µM (inactive) | > 100 µM (inactive) | > 100 µM (inactive) | > 100 µM (inactive) | > 100 µM (inactive) | – | > 100 µM (inactive) | – | > 100 µM (inactive) | > 100 µM (inactive) | > 100 µM (inactive) | – | – | – | – | – |
| N#Cc1c(-c2ccccc2)cc(-c2cccs2)c(C#N)c1N | > 100 µM (inactive) | > 100 µM (inactive) | – | > 100 µM (inactive) | – | > 100 µM (inactive) | > 100 µM (inactive) | > 100 µM (inactive) | > 100 µM (inactive) | – | 12.2 µM (inactive) | – | > 10 µM (inactive) | – | – | – | – | – | – | – |
| Cc1cc2oc(=O)c(Cl)c(Cl)c2c(C)c1Cl | 10.4 µM (inactive) | 2.1 µM (inactive) | 12.1 µM (inactive) | 14.4 µM (inactive) | 12.7 µM (inactive) | 1.37 µM (inactive) | 3.78 µM (inactive) | 3.19 µM (inactive) | 11.8 µM (inactive) | 6.28 µM (inactive) | 12.4 µM (inactive) | 15.4 µM (inactive) | – | 17.3 µM (inactive) | 2.84 µM (inactive) | 5.46 µM (inactive) | 5.64 µM (inactive) | 4.25 µM (inactive) | 7.26 µM (inactive) | 2.59 µM (inactive) |
| Cc1coc2c1C(=O)C(=O)c1c-2ccc2c1CCCC2(C)C [TANSHINONE IIA] | 1.06 µM (active) | 3.18 µM (inactive) | 9.42 µM (inactive) | 2.48 µM (inactive) | 2.33 µM (inactive) | 2.42 µM (inactive) | 1.55 µM (inactive) | 2.51 µM (inactive) | 2.52 µM (inactive) | 1.14 µM (inactive) | 3.41 µM (inactive) | 2.15 µM (inactive) | – | 2.29 µM (inactive) | 5.12 µM (inactive) | 2.96 µM (inactive) | 2.18 µM (inactive) | 1.48 µM (inactive) | 2.1 µM (inactive) | 3.73 µM (inactive) |
| O=C(NCCCCN(CCCNC(=O)C(F)(F)F)Cc1ccc2ccccc2c1)C(F)(F)F | 16.7 µM (inactive) | 24.2 µM (inactive) | 17.2 µM (inactive) | 16.7 µM (inactive) | 8.04 µM (inactive) | 15.3 µM (inactive) | 16 µM (inactive) | 26.4 µM (inactive) | 14 µM (inactive) | 20.1 µM (inactive) | 11.5 µM (inactive) | 16.7 µM (inactive) | – | 17.3 µM (inactive) | 17.5 µM (inactive) | 17.7 µM (inactive) | 14.7 µM (inactive) | 19.3 µM (inactive) | 17.1 µM (inactive) | 17.7 µM (inactive) |
| COc1ccc2c(c1)C(=O)CC(N)C2 (stereo not drawn) | > 100 µM (inactive) | 19.5 µM (inactive) | > 100 µM (inactive) | > 100 µM (inactive) | 40.6 µM (inactive) | > 100 µM (inactive) | > 100 µM (inactive) | > 100 µM (inactive) | > 100 µM (inactive) | > 100 µM (inactive) | 25.1 µM (inactive) | > 100 µM (inactive) | – | 67.8 µM (inactive) | > 100 µM (inactive) | > 100 µM (inactive) | > 100 µM (inactive) | > 100 µM (inactive) | > 100 µM (inactive) | 42.2 µM (inactive) |
| CN(C)c1ccc(/C=C(\NC(=O)c2ccccc2)C(=O)Nc2cccc(C(=O)NCCCO)c2)cc1 | > 100 µM (inactive) | > 100 µM (inactive) | > 100 µM (inactive) | > 100 µM (inactive) | > 100 µM (inactive) | > 100 µM (inactive) | > 100 µM (inactive) | > 100 µM (inactive) | > 100 µM (inactive) | > 100 µM (inactive) | > 100 µM (inactive) | > 100 µM (inactive) | – | > 100 µM (inactive) | > 100 µM (inactive) | > 100 µM (inactive) | > 100 µM (inactive) | > 100 µM (inactive) | > 100 µM (inactive) | > 100 µM (inactive) |
| O=C(CSCC(=O)N/N=C\c1cc(Br)cc(Br)c1O)N/N=C\c1cc(Br)cc(Br)c1O | 11.6 µM (inactive) | 13 µM (inactive) | > 100 µM (inactive) | 33.6 µM (inactive) | 15.7 µM (inactive) | 37 µM (inactive) | 19.6 µM (inactive) | 4.28 µM (inactive) | 65.6 µM (inactive) | 48.4 µM (inactive) | 24 µM (inactive) | 26.4 µM (inactive) | – | 17.7 µM (inactive) | 83.9 µM (inactive) | 32.1 µM (inactive) | 44.8 µM (inactive) | 40.9 µM (inactive) | 37.4 µM (inactive) | 16.1 µM (inactive) |
| O=C1OCC(c2ccc(Cl)cc2)=C1Cl | 18.8 µM (inactive) | 32.1 µM (inactive) | 22.3 µM (inactive) | 39.9 µM (inactive) | 18.1 µM (inactive) | 25.4 µM (inactive) | 13.9 µM (inactive) | 35.8 µM (inactive) | > 100 µM (inactive) | 19.1 µM (inactive) | > 100 µM (inactive) | 49.9 µM (inactive) | – | 55.8 µM (inactive) | 25.1 µM (inactive) | 34.7 µM (inactive) | 17.5 µM (inactive) | 33.2 µM (inactive) | 29.2 µM (inactive) | 45.8 µM (inactive) |
| C[N+]1([O-])C2CCC1CC(OC(=O)C(CO)c1ccccc1)C2 (stereo not drawn) | > 100 µM (inactive) | > 100 µM (inactive) | > 100 µM (inactive) | > 100 µM (inactive) | > 100 µM (inactive) | > 100 µM (inactive) | > 100 µM (inactive) | > 100 µM (inactive) | > 100 µM (inactive) | > 33.8 µM (inactive) | > 100 µM (inactive) | > 100 µM (inactive) | – | > 100 µM (inactive) | > 100 µM (inactive) | > 100 µM (inactive) | > 100 µM (inactive) | > 100 µM (inactive) | > 66.5 µM (inactive) | > 100 µM (inactive) |
| CN(CCCN1CCCC1)CCCN(C)C(=O)Cc1ccc(Cl)c(Cl)c1 | 5.47 µM (inactive) | 13.2 µM (inactive) | 29.4 µM (inactive) | 17.7 µM (inactive) | 4.69 µM (inactive) | 18.4 µM (inactive) | 13.6 µM (inactive) | 14.9 µM (inactive) | 26.9 µM (inactive) | 21.2 µM (inactive) | 18.5 µM (inactive) | 1.99 µM (inactive) | – | 26.2 µM (inactive) | 12.2 µM (inactive) | 21.2 µM (inactive) | 16.6 µM (inactive) | 3.04 µM (inactive) | 18.6 µM (inactive) | 5.85 µM (inactive) |
